Results reported in the Kinase Knowledgebase extract (Sharma et al. 2016).

Assays:
MAPK14 (human) [1] = molecular target: MAPK14 (human) (UniProt Q16539); experiment: Inhibition of MAPK14 Kinase Activity by Fluorescence Anisotropy Kinase Binding Assay
MAPK14 (human) [2] = molecular target: MAPK14 (human) (UniProt Q16539); experiment: Inhibition of MAPK14 Kinase Activity

Chain of MAPK14 (human) (Q16539 whole entry, looked up): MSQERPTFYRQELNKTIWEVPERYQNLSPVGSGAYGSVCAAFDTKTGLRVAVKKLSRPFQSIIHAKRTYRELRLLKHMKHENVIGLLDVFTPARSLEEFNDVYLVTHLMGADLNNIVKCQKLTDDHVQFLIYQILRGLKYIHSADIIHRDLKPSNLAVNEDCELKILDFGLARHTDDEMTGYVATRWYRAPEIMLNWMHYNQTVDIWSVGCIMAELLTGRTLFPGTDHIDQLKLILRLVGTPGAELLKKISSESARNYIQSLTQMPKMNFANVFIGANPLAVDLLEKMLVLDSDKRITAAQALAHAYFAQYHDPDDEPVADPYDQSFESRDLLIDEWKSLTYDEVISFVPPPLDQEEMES

| IC50 (MAPK14 (human) [1]) | IC50 (MAPK14 (human) [2]) | Compound |
| --- | --- | --- |
| < 1 µM | – | O=c1ccc2c(-c3ccc(F)cc3Cl)nc(NC(CO)CO)nc2n1-c1ccc(F)cc1F |
| < 1 µM | < 10 µM | O=c1ccc2c(-c3ccccc3F)nc(NC(CO)CO)nc2n1-c1c(F)cc(F)cc1F |
| < 1 µM | < 10 µM | O=c1ccc2c(-c3ccc(F)cc3F)nc(NC(CO)CO)nc2n1-c1c(F)cc(F)cc1F |
| < 1 µM | – | O=c1ccc2c(-c3ccc(F)cc3F)nc(NC(CO)CO)nc2n1-c1cccc(F)c1F |
| < 1 µM | – | O=c1ccc2c(-c3ccc(F)cc3)nc(NC(CO)CO)nc2n1-c1c(F)cc(F)cc1F |
| < 1 µM | < 10 µM | O=c1ccc2c(-c3ccc(F)cc3F)nc(NC(CO)CO)nc2n1-c1ccc(F)cc1F |
| < 1 µM | – | C[C@@H](CO)Nc1nc(-c2ccc(F)cc2F)c2ccc(=O)n(-c3ccc(F)cc3)c2n1 |
